# Columns and labels:
# [1] = tested on: TeloDNA antisense (5'-fluorescein) (DNA, single strand) CCCTAACCCTAACCCTAACCCTAA; test: fluorescence polarization; details: 150 mM salt (KCl, NaCl or LiCl; which not stated); 20 mM HEPES pH 7.5, room temperature, tRNA competitor; dilutions from 50 μM compound
# TERRA in U2OS cells = test: TERRA levels by RNA dot blot in U2OS cells; format: cell-based; details: ALT positive U2OS cells, 2 μM, 2 days
# Method: LOX human melanoma cells[74],[101] were grown in complete RPMI (high glucose RPMI supplemented with 10% heat inactivated FBS, 100 I.U./mL Penicillin, and 100 μg/mL Streptomycin (Corning)). LOX cells inducibly expressing TRF2∆B protein were generated by lentiviral transduction. Cells were infected with lentiviral particles containing pInducer10L and pIND-MYC-TRF2∆B, and single cell clonal colonies were selected in 1 µg/mL puromycin. N-terminally Myc-tagged TRF2∆B protein was expressed in stable lines by induction with 1 µg/ml doxycycline at indicated days. Due to the instability of doxycycline in the culture, the culture medium will be replaced with fresh doxycycline every 2 days. […]
# Homogenous Time Resolved Fluorescence (HTRF) assay
# All material including peptide, nucleic acids and compounds were dissolved in buffer containing 20mM HEPES pH7.5 150mM KCl. […] The plate was incubated at room temperature for 30 minutes, following by adding 5µL of streptavidin-Tb-cryptate (Cisbio, PerkinElmer) and the plate was then incubated at room temperature for another 30 minutes before measured by EnVision plate reader (330/520 nm). […] The curves were analyzed using Prism 8.0. […]
# Total RNA was isolated as previously described by using TRIzol reagent (Invitrogen) 1. […] RNA concentration was determined by Nanodrop-2000 (ThermoFisher). […]
# G4 TeloDNA = test: FP assay, compound binding to 5′ fluorescein-labeled TeloDNA; details: 10 nM fluorescein-labeled probe, 3 independent experiments
# Method: All the nucleic acids, peptides and chemicals were dissolved in buffer containing 20 mM HEPES pH7.5, 150 mM salt (KCl, NaCl, LiCl) at the stock concentration of 1 mM. For peptide and nucleic acid interactions, 25μL of each nucleic acids with a sequential twofold dilutions starting from 50 μM was added into each well of 96-well plate followed by adding 25μL of 10 nM FITC labeled TRF2 peptide. For compounds and nucleic acid interactions, 20μL of each compounds with a sequential twofold dilutions starting from 50 μM were added into each well of 96-well plate followed by adding 5μL of 20 ng/mL tRNA and 25μL of 10 nM FAM labeled nucleic acids. For inhibition assay, 5μL FITC labeled TRF2 GAR peptide (10 nM final concentration) and 10 μL oligos (5 μM final concentration) were mixed, followed by adding 5μL of each compound with a sequential twofold dilutions starting from 50 μM into each well of 384-well plate. All components were mixed thoroughly, and the plate was incubated at room temperature for 1 h before placing in an Envision Plate Reader for reading at 495/520 nm. All data curves were fitted using Prism 8.0.
# [2] = tested on: TeloDNA (unlabelled) (DNA, G4) TTAGGGTTAGGGTTAGGGTTAGGG; test: fluorescence polarization, displacement of TRF2 GAR peptide; details: 150 mM KCl, NaCl or LiCl (salt not specified); 20 mM HEPES; 20 mM HEPES pH 7.5, room temperature; FITC-TRF2 GAR peptide 10 nM displaced; 5 μM oligo
# [3] = tested on: nascent TERRA transcripts; test: Nascent RNA capture (EU, Click-iT) and RT-qPCR for TERRA in LOX cells; format: cell-based, human; details: 2 μM, 48 h, then EU 4 h
# Method: Mei et al, 2020 TERRA Requires TRF2 GAR Domain
# Nascent RNA analysis was performed as described previously 2 by the use of Click-iT Nascent RNA capture kit (Life Technologies) with some modifications. Briefly, LOX cells were treated with 2 µM of chemicals, or LOX TRF2DB cells were induced with 1 µg/ml of doxycycline for 48 hrs, and then treated cells were pulse labeled 0.2 mM EU for additional 4 hrs. Total RNA was prepared and biotinylated by Click reaction. Nascent RNA was purified by using Streptavidin T1 magnetic beads and was subject to cDNA synthesis using SuperScript VILO cDNA synthesis kit (Life Technologies). Relative Nascent RNA expression was determined using DCT methods relative to control gene U1 or Actin. Primer sequences used in qPCR analysis of 10q, 13q, XYq, and 18q TERRA were described previously 2.
# Reference (Supplmentary Methods)
# 1 Deng, Z., Norseen, J., Wiedmer, A., Riethman, H. & Lieberman, P. M. TERRA RNA binding to TRF2 facilitates heterochromatin formation and ORC recruitment at telomeres. Mol […]
# 2 Deng, Z. et al. HSV-1 remodels host telomeres to facilitate viral replication. Cell Rep 9,
# 3 Deng, Z. et al. A role for CTCF and cohesin in subtelomere chromatin organization, TERRA transcription, and telomere end protection. EMBO J 31, 4165-4178, […]
SMILES,binding [1],TERRA levels in U2OS cells (TERRA in U2OS cells),EC50 (G4 TeloDNA) [µM],IC50 [2] [µM],"nascent TERRA transcripts from chromosomes 10q, XYq and 18q [3]"
CN(C)c1ccc(Nc2c3ccc(NC(=O)CCN4CCCC4)cc3nc3cc(NC(=O)CCN4CCCC4)ccc23)cc1 [BRACO-19],no,reduced TERRA levels,3.9,0.04,significant reduction (~ two fold)
"CCc1c(C)c2cc3nc(cc4nc(cc5c(CC)c(C)c(cc1[nH]2)n5C)C(C)=C4CCC(=O)O)C(CCC(=O)O)=C3C [NMM, N-methyl mesoporphyrin IX]",no,reduced TERRA levels,4.8,1.0,significant reduction (~ two fold)

# — paper PMC7876106 (Scientific Reports, 2021)
